# Target: T1, STK32B (YANK2) (Homo sapiens, UniProt Q9NY57)
# T1 construct: purchased Thermo Fisher Scientific (Life Technologies) SelectScreen
# Test: SelectScreen LanthaScreen
# Type: binding
# Conditions: read-out: % displacement
# In short: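 NU5455 was profiled across the SelectScreen Broad panel of kinase activity and binding assays. Z'LYTE reactions such as CSF1R ran at apparent Km ATP, while the Adapta CAMK1 assay used ATP listed as 10. Values are given as percent.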
# T1 sequence (Q9NY57 whole entry): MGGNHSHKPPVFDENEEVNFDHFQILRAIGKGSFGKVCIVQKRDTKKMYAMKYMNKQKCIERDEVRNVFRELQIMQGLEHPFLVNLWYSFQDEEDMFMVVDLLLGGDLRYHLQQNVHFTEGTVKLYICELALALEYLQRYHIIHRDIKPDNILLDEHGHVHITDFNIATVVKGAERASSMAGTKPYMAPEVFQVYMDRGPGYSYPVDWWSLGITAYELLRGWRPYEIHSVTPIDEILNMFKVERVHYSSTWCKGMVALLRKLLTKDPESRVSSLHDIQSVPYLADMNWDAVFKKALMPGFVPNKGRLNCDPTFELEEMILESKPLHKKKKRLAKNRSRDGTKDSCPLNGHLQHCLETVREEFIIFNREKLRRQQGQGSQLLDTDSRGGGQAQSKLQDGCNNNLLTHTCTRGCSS
smiles,measurement,value
CN(C(=O)CN1CCOCC1)c1ccc2sc3c(-c4cccc5c(=O)cc(N6CC7CCC(C6)O7)oc45)cccc3c2c1 [NU5455],inhibition at 1 µM,-1.4%

# — paper PMC6934184, “Selective DNA-PKcs inhibition extends the therapeutic index of localized radiotherapy and chemotherapy” (The Journal of Clinical Investigation, 2019)
